The source of these data is ChEMBL document CHEMBL1201862, “PubChem BioAssay data set” (2004).

Molecules are shown by their SMILES. The source made the active and inactive calls.

Experiment [1] addresses T1, Sentrin-specific protease 8 (Homo sapiens, UniProt Q96LD8).
T1 sequence (Q96LD8 whole entry): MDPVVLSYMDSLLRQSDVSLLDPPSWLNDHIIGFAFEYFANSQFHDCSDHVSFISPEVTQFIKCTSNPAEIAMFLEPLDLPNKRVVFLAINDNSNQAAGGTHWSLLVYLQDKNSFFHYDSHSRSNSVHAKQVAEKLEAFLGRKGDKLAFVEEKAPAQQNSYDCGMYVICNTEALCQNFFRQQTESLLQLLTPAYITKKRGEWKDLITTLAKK
The experiment is classed as functional.

The target of another experiment is T2, Protein RecA (Mycobacterium tuberculosis, UniProt P9WHJ3).
T2 sequence (P9WHJ3 whole entry): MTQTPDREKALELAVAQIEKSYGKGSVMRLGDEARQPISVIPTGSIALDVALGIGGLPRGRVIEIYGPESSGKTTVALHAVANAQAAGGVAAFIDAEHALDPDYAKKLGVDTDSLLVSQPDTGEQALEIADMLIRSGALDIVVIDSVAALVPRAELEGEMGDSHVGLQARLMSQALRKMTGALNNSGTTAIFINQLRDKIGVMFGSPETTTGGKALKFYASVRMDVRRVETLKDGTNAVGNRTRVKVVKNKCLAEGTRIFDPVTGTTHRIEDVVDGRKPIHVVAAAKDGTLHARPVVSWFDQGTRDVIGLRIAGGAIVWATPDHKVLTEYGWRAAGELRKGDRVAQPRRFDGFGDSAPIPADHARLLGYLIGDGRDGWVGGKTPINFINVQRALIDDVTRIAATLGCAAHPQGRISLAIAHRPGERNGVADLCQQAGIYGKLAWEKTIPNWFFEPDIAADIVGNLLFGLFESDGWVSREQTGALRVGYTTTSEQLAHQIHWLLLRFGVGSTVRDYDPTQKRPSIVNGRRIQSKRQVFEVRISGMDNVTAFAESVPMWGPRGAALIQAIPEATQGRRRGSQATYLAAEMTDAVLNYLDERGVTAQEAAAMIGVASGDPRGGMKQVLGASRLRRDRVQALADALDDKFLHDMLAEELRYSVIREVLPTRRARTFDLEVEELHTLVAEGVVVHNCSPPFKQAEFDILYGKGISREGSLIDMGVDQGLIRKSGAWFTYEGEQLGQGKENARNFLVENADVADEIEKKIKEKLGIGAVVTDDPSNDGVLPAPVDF
Briefly: Fluorescence Cell-Free Homogeneous Dose Retest to Identify Inhibitors of RecA-Intein Splicing Activity. [Related pubchem assays (depositor defined):AID2097, AID2223, AID489010, AID492950]. The class given is functional.

The subject of experiment [2] is BJ. In words: cytotoxicity toward BJ-TERT fibroblasts, dose response, cell-based, RAS-independent, luminescence (AID 1933). The experiment is classed as functional. To be noted: Homo sapiens.
Experiment [3] concerns the target 26S proteasome non-ATPase regulatory subunit 14 (Homo sapiens, UniProt O00487). Briefly: inhibition of proteasome subunit RPN11 – biochemical, fluorescence polarization, uHTS hits, confirmation (AID 602368). The class given is functional.
Experiment [4] is described as follows: cytotoxicity toward DRD oncogenic fibroblasts, dose response, cell-based, non-viral oncogenic, luminescence (AID 1934). The experiment is classed as functional. The note with it: Homo sapiens.
Experiment [5] has as its system BJ. Briefly: cytotoxicity toward BJ-TERT-LT-ST fibroblasts, dose response, cell-based, RAS-independent, luminescence (AID 1935).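 Further: BJ fibroblasts immortalized with TERT plus LT and ST oncogenes.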 The note with it: Homo sapiens. The class given is functional.
Experiment [6] can be described thus: cells. The experiment is classed as functional, cell-based.
Experiment [7] addresses Serine/threonine-protein kinase pim-1 (Homo sapiens, UniProt P11309). The experiment is classed as functional.
Experiment [8] has as its target Macrophage-stimulating protein receptor (Homo sapiens, UniProt Q04912). In words: Navigating the Kinome. Panel member name: MST1R. The class given is functional.
The target of experiment [9] is Leucine-rich repeat serine/threonine-protein kinase 2 (Homo sapiens, UniProt Q5S007). The experiment is classed as functional.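 Further: value from a broad kinome-wide panel profiling study in which LRRK2 was one of the kinases tested.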
Experiment [10] concerns the target Dual specificity mitogen-activated protein kinase kinase 1 (Homo sapiens, UniProt Q02750). In words: Navigating the Kinome. Panel member name: MAP2K1. The experiment is classed as functional.
The target in experiment [11] is Proto-oncogene tyrosine-protein kinase receptor Ret (Homo sapiens, UniProt P07949). The experiment is classed as functional.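 Further: measured within a kinome-wide profiling panel, RET as the panel member.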
The target in a further experiment is LIM domain kinase 1 (Homo sapiens, UniProt P53667). In words: Navigating the Kinome. Panel member name: LIMK1. The experiment is classed as functional.
For experiment [12], the target named is cAMP-dependent protein kinase catalytic subunit alpha (Homo sapiens, UniProt P17612). The experiment is classed as functional.
For experiment [13], the target named is G protein-coupled receptor kinase 5 (Homo sapiens, UniProt P34947). Briefly: Navigating the Kinome. Panel member name: GPRK5. The experiment is classed as functional.
Experiment [14] concerns the target Tyrosine-protein kinase Lck (Homo sapiens, UniProt P06239). The experiment is classed as functional.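 Further: lck was assayed as one member of a kinase panel.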
In experiment [15] the target is Mitogen-activated protein kinase 8 (Homo sapiens, UniProt P45983). The class given is functional.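 Further: value comes from one member of a kinome-wide kinase profiling panel.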
Experiment [16] deals with Tyrosine-protein kinase JAK2 (Homo sapiens, UniProt O60674). The experiment is classed as functional.
Experiment [17] addresses Rho-associated protein kinase 1 (Homo sapiens, UniProt Q13464). The class given is functional.
Experiment [18] in a line: HeLa cell cytotoxicity, dose response, cytotoxicity control for MgcRacGAP inhibitor project (AID 624300). The experiment is classed as functional.
Experiment [19] is described as follows: cells.

Sequence of Mitogen-activated protein kinase 8 (P45983 whole entry): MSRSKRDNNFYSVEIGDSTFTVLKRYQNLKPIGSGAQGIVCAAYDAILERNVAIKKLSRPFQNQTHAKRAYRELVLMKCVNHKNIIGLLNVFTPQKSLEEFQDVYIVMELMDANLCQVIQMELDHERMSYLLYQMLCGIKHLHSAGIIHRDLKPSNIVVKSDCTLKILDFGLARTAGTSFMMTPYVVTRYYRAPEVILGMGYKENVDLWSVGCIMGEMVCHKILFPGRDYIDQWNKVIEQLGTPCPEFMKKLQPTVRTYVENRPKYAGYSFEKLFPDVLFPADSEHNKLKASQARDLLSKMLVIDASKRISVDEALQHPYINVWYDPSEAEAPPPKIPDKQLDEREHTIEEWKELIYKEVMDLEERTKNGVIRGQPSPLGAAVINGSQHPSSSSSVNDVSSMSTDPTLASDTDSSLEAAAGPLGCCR
Sequence of Tyrosine-protein kinase JAK2 (O60674 whole entry): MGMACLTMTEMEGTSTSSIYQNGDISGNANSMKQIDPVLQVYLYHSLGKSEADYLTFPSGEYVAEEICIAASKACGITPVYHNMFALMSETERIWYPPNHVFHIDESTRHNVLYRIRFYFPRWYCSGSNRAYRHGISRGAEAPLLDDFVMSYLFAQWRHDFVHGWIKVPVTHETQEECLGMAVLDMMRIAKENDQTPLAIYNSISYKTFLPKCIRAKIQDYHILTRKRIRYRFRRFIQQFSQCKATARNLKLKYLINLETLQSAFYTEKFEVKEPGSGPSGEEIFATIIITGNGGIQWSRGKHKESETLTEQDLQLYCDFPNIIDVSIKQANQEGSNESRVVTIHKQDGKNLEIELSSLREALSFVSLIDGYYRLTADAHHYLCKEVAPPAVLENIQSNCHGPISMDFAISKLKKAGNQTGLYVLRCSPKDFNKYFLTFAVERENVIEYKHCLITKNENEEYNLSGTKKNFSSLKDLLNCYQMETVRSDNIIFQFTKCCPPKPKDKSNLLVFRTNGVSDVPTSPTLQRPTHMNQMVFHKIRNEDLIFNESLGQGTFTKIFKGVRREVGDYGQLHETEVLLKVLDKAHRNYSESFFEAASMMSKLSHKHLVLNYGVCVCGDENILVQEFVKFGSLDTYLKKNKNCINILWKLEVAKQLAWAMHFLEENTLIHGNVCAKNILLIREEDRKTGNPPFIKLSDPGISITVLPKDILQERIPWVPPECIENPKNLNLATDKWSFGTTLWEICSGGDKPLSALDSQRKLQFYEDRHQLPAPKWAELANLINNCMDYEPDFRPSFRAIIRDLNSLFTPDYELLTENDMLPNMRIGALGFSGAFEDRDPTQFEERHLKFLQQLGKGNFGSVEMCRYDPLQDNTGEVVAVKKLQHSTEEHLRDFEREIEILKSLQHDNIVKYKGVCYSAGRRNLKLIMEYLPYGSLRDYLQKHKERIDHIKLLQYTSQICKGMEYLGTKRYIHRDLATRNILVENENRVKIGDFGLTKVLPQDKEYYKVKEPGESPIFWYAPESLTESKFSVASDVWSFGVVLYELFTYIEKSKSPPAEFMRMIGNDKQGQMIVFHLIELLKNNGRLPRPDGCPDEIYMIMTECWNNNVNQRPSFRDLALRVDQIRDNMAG
Sequence of Leucine-rich repeat serine/threonine-protein kinase 2 (Q5S007 whole entry): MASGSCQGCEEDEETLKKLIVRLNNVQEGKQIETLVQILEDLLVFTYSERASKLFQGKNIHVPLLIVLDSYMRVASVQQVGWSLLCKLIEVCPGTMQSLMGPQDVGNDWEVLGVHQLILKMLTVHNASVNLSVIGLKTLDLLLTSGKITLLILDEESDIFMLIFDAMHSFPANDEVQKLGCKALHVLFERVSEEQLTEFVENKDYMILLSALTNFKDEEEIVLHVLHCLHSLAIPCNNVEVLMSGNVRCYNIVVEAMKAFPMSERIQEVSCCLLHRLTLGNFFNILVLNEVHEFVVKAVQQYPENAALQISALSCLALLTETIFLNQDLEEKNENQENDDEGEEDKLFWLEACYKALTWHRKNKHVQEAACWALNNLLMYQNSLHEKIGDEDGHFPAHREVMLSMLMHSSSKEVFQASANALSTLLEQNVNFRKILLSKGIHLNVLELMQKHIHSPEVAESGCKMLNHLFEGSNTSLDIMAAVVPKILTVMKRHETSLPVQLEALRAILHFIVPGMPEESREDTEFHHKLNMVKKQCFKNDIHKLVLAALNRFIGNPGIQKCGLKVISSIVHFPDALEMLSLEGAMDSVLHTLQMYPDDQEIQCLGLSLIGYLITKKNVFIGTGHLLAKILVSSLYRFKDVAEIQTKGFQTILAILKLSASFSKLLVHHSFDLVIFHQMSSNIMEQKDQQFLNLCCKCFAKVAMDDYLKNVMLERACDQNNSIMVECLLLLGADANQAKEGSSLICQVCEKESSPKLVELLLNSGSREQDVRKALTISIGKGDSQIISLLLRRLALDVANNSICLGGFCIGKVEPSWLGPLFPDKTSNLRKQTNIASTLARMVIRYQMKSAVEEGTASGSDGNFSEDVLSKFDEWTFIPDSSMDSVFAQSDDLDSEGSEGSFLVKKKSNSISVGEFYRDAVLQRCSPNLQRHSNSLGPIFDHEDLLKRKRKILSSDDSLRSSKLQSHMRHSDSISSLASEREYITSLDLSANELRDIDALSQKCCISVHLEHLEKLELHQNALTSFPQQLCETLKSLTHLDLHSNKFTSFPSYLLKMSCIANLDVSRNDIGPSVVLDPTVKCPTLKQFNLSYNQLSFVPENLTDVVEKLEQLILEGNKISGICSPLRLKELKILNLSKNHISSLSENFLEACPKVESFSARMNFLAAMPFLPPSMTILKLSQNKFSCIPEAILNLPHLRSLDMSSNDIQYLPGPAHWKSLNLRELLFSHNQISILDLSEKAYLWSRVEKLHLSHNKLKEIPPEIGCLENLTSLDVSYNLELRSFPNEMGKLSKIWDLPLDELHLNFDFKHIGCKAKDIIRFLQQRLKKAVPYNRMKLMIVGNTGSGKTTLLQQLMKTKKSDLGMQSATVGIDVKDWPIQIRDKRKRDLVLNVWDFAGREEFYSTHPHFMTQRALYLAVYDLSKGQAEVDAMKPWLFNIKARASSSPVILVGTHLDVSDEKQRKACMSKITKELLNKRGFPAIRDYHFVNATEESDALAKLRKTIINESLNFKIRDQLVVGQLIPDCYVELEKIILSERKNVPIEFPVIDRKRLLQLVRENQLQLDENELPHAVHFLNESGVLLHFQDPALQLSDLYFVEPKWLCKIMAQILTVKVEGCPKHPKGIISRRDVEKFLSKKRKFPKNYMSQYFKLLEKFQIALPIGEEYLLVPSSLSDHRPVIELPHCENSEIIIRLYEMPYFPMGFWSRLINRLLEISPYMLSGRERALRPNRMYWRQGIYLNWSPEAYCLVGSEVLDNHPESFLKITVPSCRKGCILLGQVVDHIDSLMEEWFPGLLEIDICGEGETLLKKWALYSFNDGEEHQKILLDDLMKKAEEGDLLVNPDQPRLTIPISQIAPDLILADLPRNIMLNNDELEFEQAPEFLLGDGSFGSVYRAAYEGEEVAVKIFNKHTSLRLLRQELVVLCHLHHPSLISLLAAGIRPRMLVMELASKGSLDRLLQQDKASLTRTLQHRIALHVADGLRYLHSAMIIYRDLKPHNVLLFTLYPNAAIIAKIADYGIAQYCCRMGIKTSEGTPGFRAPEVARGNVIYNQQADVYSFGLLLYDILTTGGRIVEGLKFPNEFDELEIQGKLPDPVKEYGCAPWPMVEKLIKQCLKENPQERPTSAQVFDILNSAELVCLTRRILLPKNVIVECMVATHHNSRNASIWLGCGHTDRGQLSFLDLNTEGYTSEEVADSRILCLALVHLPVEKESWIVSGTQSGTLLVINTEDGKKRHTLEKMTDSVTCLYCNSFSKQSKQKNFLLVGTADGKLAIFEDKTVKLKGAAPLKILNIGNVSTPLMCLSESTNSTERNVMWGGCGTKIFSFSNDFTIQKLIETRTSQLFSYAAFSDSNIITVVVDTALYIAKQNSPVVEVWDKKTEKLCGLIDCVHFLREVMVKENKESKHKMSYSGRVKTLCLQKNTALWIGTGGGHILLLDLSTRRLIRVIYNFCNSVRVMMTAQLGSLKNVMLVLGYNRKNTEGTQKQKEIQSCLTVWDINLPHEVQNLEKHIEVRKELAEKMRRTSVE
Sequence of Dual specificity mitogen-activated protein kinase kinase 1 (Q02750 whole entry): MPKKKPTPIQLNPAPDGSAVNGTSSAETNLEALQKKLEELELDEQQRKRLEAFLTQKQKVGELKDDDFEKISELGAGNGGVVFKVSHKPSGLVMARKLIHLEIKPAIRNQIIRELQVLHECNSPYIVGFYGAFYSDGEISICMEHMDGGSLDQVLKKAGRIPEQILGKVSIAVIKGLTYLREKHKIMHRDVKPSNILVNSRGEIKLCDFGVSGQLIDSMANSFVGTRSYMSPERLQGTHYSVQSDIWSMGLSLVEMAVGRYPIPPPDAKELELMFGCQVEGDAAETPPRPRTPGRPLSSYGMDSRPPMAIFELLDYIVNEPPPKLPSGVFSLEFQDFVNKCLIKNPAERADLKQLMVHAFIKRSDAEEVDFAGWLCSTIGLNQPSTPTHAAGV
Sequence of Serine/threonine-protein kinase pim-1 (P11309 whole entry): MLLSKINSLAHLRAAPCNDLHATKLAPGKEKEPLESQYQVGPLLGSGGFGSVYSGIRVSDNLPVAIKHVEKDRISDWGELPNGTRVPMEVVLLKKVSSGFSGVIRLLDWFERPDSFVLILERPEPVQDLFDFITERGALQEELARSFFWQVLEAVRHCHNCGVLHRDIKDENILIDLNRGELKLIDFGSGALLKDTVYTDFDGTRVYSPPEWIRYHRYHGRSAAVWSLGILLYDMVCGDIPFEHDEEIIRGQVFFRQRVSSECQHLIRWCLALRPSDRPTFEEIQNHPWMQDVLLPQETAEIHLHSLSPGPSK
Sequence of 26S proteasome non-ATPase regulatory subunit 14 (O00487 whole entry): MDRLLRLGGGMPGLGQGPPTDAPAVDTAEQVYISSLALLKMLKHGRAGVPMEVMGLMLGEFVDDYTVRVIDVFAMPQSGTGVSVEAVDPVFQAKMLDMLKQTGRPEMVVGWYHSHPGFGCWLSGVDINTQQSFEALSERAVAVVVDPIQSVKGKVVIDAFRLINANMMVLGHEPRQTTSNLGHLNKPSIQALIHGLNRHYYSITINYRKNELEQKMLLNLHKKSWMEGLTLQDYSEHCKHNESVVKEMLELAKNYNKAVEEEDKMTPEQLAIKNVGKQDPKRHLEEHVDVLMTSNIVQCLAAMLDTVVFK

As to `Nc1nnc2c(n1)CCCC2`, the IC50 in [1] was 10.8 µM (active).

Consider `O=C(Cc1ccccc1Cl)NC1(O)C(=O)c2ccccc2C1=O`, for which the concentration giving a half-maximal response (EC50) on Protein RecA is 8.18 µM (active).

As for `O=C(N/N=C/c1c(O)ccc2ccccc12)c1[nH]ncc1Br`, the concentration giving a half-maximal response (EC50) was 24.6 µM (active) with BJ [2], 3.04 µM (active) in experiment [4], 10.5 µM (active) in the experiment on BJ [5] and 7.76 µM (active) in “cells [6]”. In addition, the IC50 in [1] is > 100 µM (inactive); in experiment [3] it was 24 µM (active).

Turning to `Nc1c(-c2ccc(NC(=O)Nc3cccc(C(F)(F)F)c3)cc2)cnc2c(-c3ccc4c(c3)OCO4)cnn12`, the Ki in experiment [7] is > 6.31 µM (inactive); in experiment [8], > 3.98 µM (inactive); in [9] it was > 2.51 µM (inactive); in experiment [10], > 3.16 µM (inactive); in experiment [11], 0.00398 µM (active); at LIM domain kinase 1, > 3.16 µM (inactive). For the same molecule, the Ki is > 1.26 µM (inactive) in experiment [12]; > 3.98 µM (inactive) in [13]; 0.0316 µM (active) in experiment [14]; > 5.01 µM (inactive) in experiment [15]; > 2.51 µM (inactive) in [16]; > 3.98 µM (inactive) in [17].

As to `O=C(Nc1cc(-c2c[nH]c3ncccc23)cc(Cl)n1)c1ccccc1`, the Ki in [7] was > 3.98 µM (inactive); in experiment [8], > 3.98 µM (inactive); in experiment [9] it was > 2.51 µM (inactive); in experiment [10], > 3.16 µM (inactive); in experiment [11] it was > 3.16 µM (inactive); in experiment [12], > 2.51 µM (inactive). The Ki in experiment [13] was > 3.98 µM (inactive); in experiment [14], > 6.31 µM (inactive); in [15], > 5.01 µM (inactive); in [16], > 2.51 µM (inactive); in experiment [17], > 0.316 µM (inactive).

In the case of `CCN1C(=Cc2sc3ccccc3[n+]2C)C=Cc2cccc(C)c21`, in experiment [18], the CC50 is 13.8 µM (active). Further, the 50% effective concentration (EC50) in the experiment “cells [19]” is < 0.004 µM (active).
